Data published in PubChem BioAssay (NCI).
“And” between values parts separate entries of the source, which are not always exact repeats. Equal values may be shown once.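 A five-concentration, 48-hour dose response in 96-well plates underlies each endpoint, interpolated linearly between surrounding concentrations. Here, GI50 denotes the concentration required for 50% inhibition of growth. TGI: total growth inhibition.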

Assays:
Test in all cases: NCI tumour cell line growth inhibition, 48 h
786-0 renal = system: 786-0 renal
COLO 205 colon = system: COLO 205 colon
IGROV1 ovarian = system: IGROV1 ovarian
KM12 colon = system: KM12 colon
LOX IMVI melanoma = system: LOX IMVI melanoma
NCI-H226 lung = system: NCI-H226 lung
NCI-H460 lung = system: NCI-H460 lung
OVCAR-4 ovarian = system: OVCAR-4 ovarian
OVCAR-5 ovarian = system: OVCAR-5 ovarian
SR leukemia = system: SR leukemia

Compound | GI50 (786-0 renal) | TGI (786-0 renal) | GI50 (COLO 205 colon) | TGI (COLO 205 colon) | GI50 (IGROV1 ovarian) | TGI (IGROV1 ovarian) | GI50 (KM12 colon) | TGI (KM12 colon) | GI50 (LOX IMVI melanoma) | TGI (LOX IMVI melanoma) | GI50 (NCI-H226 lung) | TGI (NCI-H226 lung) | GI50 (NCI-H460 lung) | TGI (NCI-H460 lung) | GI50 (OVCAR-4 ovarian) | TGI (OVCAR-4 ovarian) | GI50 (OVCAR-5 ovarian) | TGI (OVCAR-5 ovarian) | GI50 (SR leukemia) | TGI (SR leukemia)
CCCCCN(CCCCC)CC(O)c1ccc(Cl)c2ccccc12 (centres undefined) | 11.7 µM | 24.8 µM | 3.6 µM | 16.5 µM | 4.92 µM | 24.3 µM | 6.11 µM | 25 µM | 3.94 µM | 16.4 µM | 10 µM | 23.1 µM | 3.72 µM | 19.1 µM | 12.2 µM | 72.5 µM | 9.41 µM | 22 µM | 4.11 µM | 14.7 µM
COC(=O)C(=O)C(C(=O)C=C(C)C)C(=O)C(=O)Nc1ccc(C)cc1C (centres undefined) |  | > 100 µM |  | > 100 µM |  | > 100 µM |  | > 100 µM |  | > 100 µM |  | > 100 µM |  | > 100 µM |  | > 100 µM |  | > 100 µM |  | > 100 µM
Cc1ccc(NC(=O)c2sc3nc(C)c(C(O)c4ccccc4)cc3c2N)cc1 (centres undefined) | 1.02 µM | 18.8 µM | 0.573 µM | > 21.8 µM | 0.634 µM | 36.8 µM | 0.452 µM | > 61.9 µM | 0.629 µM | 19 µM | 1.27 µM | 41.2 µM | 0.359 µM | 5.32 µM | 1.55 µM | 47 µM | 0.698 µM | 24.1 µM | 0.283 µM | > 25.6 µM
CC[C@H](C)[C@H]1O[C@]2(C=C[C@@H]1C)C[C@@H]1C[C@@H](C/C=C(\C)[C@@H](O[C@H]3C[C@H](OC)[C@@H](O[C@H]4C[C@H](OC)[C@@H](NC)[C@H](C)O4)[C@H](C)O3)[C@@H](C)/C=C/C=C3\CO[C@@H]4[C@H](O)C(C)=C[C@@H](C(=O)O1)[C@]34O)O2 | 1.26 µM | 2.94 µM | 1.77 µM | 3.39 µM | 3.06 µM | 12 µM | 3.1 µM | 11.4 µM | 1.68 µM | 3.13 µM | 4.26 µM | 16 µM | 1.84 µM | 3.63 µM | 3.3 µM | 13.4 µM | 3.41 µM | 14.9 µM | 1.49 µM | 4.17 µM
C/C(=N\Nc1ccc(Cl)cn1)c1ccccn1 | 0.206 µM | > 33.9 µM | 0.0227 µM | 36.7 µM | 0.0823 µM | 38.1 µM | 0.41 µM | 18.1 µM | 0.113 µM | > 24.2 µM | 0.0939 µM | 2.65 µM | 0.268 µM | 11.2 µM | 0.0485 µM | > 59.4 µM | 0.225 µM | > 100 µM | 0.0556 µM | > 40.9 µM
CON(C)C(=O)N1N=C(c2cc(F)ccc2F)SC1(CCCN)c1ccccc1 (centres undefined) | 0.0574 µM and < 0.01 µM | 18.1 µM and 18.5 µM | < 0.01 µM |  | 6.28 µM and 4.85 µM | 32.2 µM and 27.5 µM | 0.028 µM and < 0.01 µM | 13.5 µM and 12.9 µM | 0.024 µM and < 0.01 µM | 17.5 µM and 16.4 µM | 12 µM and 12.5 µM | 27.3 µM and 28.3 µM | < 0.01 µM | 12 µM and 11.8 µM | 4.27 µM and 3.37 µM | 24.9 µM and 24.8 µM | 0.0576 µM and < 0.01 µM | 15.1 µM and 15.8 µM | < 0.01 µM | 12.4 µM and 12.6 µM
